Each structure is given as a SMILES string. Bounds are passed on as bounds.

The test concerns HCV replicon cells. Description: Cell-based HCV replicon assay (replicon RNA level by real time PCR, Taqman). The following applies: Hepatitis C virus, 72 h, harvested on day 3, EC90 = concentration necessary to achieve ΔCT=3.2 over the baseline, read-out: EC90 Range. How it is done:
Assays Cell-Based HCV Replicon Assay
To measure cell-based anti-HCV activity of the compounds of the present invention, replicon cells were seeded at 5000 cells/well in 96-well collagen I-coated Nunc plates in the presence of the compound of the invention. […] The final concentration of DMSO was 0.5%, fetal bovine serum was 10%, in the assay media. Cells were harvested on day 3 by the addition of 1× cell lysis buffer (Ambion cat #8721). The replicon RNA level was measured using real time PCR (Taqman assay). The amplicon was located in 5B. […] GAPDH RNA was used as endogenous control and was amplified in the same reaction as NS5B (multiplex PCR) using primers and VIC-labeled probe recommended by the manufacturer (PE Applied Biosystem). The real-time RT-PCR reactions were run on ABI PRISM 7900HT Sequence Detection System using the following program: 48° C. for 30 min, 95° C. for 10 min, 40 cycles of 95° C. for 15 sec, 60° C. for 1 min. The ACT values (CT5B-CTGAPDH) were plotted against the concentration of test compound and fitted to the sigmoid dose-response model using GraphPad PRISM software. EC50 was defined as the concentration of inhibitor necessary to achieve ΔCT=1 over the projected baseline; EC90 the concentration necessary to achieve ΔCT=3.2 over the baseline. Alternatively, to quantitate the absolute amount of replicon RNA, a standard curve was established by including serially diluted T7 transcripts of replicon RNA in the Taqman assay. All Taqman reagents were from PE Applied Biosystems. Such an assay procedure was described in detail in e.g. Malcolm et al., Antimicrobial Agents and Chemotherapy 50: 1013-1020 (2006).
(In general: A replicon is a self-replicating genome or part of one, used to study replication in cells.)
By EC90 is commonly meant the point of the concentration-response curve where the effect stands at 90%. For the molecule `COCCNc1nc(Cl)c(C#Cc2ccc(OC)nc2)c(N[C@@H]2C[C@H](CO)[C@@H](O)[C@H]2O)n1` [Compound 75], the EC90 was ≤ 500 nM. For the molecule `COc1ccc(C#Cc2c(Cl)nc(NCC(F)(F)F)nc2N[C@@H]2C[C@H](CO)[C@@H](O)[C@H]2O)cn1` [Compound 76], the EC90 was ≤ 500 nM. In the case of `COCCNc1nc(C)c(C#Cc2ccc(OC)nc2)c(N[C@@H]2C[C@H](CO)[C@@H](O)[C@H]2O)n1` [Compound 77] it was ≤ 500 nM; in that of `COc1ccc(C#Cc2c(C)nc(NCCCO)nc2N[C@@H]2C[C@H](CO)[C@@H](O)[C@H]2O)cn1` [Compound 78], ≤ 500 nM; in that of `CCCc1ccc(C#Cc2c(Cl)nc(N)nc2N[C@@H]2C[C@H](CO)[C@@H](O)[C@H]2O)cn1` [Compound 79], ≤ 500 nM. For `Cc1nc(N)nc(N[C@@H]2C[C@H](CO)[C@@H](O)[C@H]2O)c1C#Cc1nccs1` [Compound 80] the value was 500 to 5000 nM. In the case of `CCOc1ccc(C#Cc2c(C)nc(NCCOC)nc2N[C@@H]2C[C@H](CO)[C@@H](O)[C@H]2O)cn1` [Compound 81], the EC90 is ≤ 500 nM. For `COCCNc1nc(C)c(C#Cc2ccc(OC)nc2C)c(N[C@@H]2C[C@H](CO)[C@@H](O)[C@H]2O)n1` [Compound 82] the value was ≤ 500 nM; for `COc1ccc(C#Cc2c(C)nc(NCCCO)nc2N[C@@H]2C[C@H](CO)[C@H]3OC(C)(C)O[C@H]32)cn1` [Compound 83], 500 to 5000 nM. On to `COc1ccc(C#Cc2c(C)nc(NCCSC)nc2N[C@@H]2C[C@H](CO)[C@@H](O)[C@H]2O)cn1` [Compound 84], for which the EC90 was ≤ 500 nM. For `CCOc1ccc(C#Cc2c(C)nc(NCC(C)(C)C)nc2N[C@@H]2C[C@H](CO)[C@@H](O)[C@H]2O)cn1` [Compound 85] the value was ≤ 500 nM; for `CCOc1ccc(C#Cc2c(C)nc(NCC(F)(F)F)nc2N[C@@H]2C[C@H](CO)[C@@H](O)[C@H]2O)cn1` [Compound 86], ≤ 500 nM. On to `CCCNc1nc(C)c(C#Cc2ccc(OCC)nc2)c(N[C@@H]2C[C@H](CO)[C@@H](O)[C@H]2O)n1` [Compound 87], for which the EC90 is ≤ 500 nM.

Take `CCNc1nc(C)c(C#Cc2ccc(OCC)nc2)c(N[C@@H]2C[C@H](CO)[C@@H](O)[C@H]2O)n1` [Compound 88]: the EC90 was ≤ 500 nM. For `CCOc1ccc(C#Cc2c(C)nc(NCCF)nc2N[C@@H]2C[C@H](CO)[C@@H](O)[C@H]2O)cn1` [Compound 89] the value was 500 to 5000 nM; for `COc1ccc(C#Cc2c(C)nc(NCC(F)(F)F)nc2N[C@@H]2C[C@H](CO)[C@@H](O)[C@H]2O)cn1` [Compound 90], 500 to 5000 nM; for `CCNc1nc(C)c(C#Cc2ccc(OC)nc2)c(N[C@@H]2C[C@H](CO)[C@@H](O)[C@H]2O)n1` [Compound 91], ≤ 500 nM. Take `COc1ccc(C#Cc2c(C)nc(NCC3CC3)nc2N[C@@H]2C[C@H](CO)[C@@H](O)[C@H]2O)cn1` [Compound 92]: the EC90 is ≤ 500 nM. For `COc1ccc(C#Cc2c(C)nc(NCc3c(OC)cccc3OC)nc2N[C@@H]2C[C@H](CO)[C@@H](O)[C@H]2O)cn1` [Compound 93] the value was ≤ 500 nM; for `COCCNc1nc(C)c(C#Cc2ccc(OC)nc2OC)c(N[C@@H]2C[C@H](CO)[C@@H](O)[C@H]2O)n1` [Compound 94], ≤ 500 nM. Take `COc1ccc(C#Cc2c(C)nc(NCC3CC3)nc2N[C@@H]2C[C@H](CO)[C@@H](O)[C@H]2O)c(OC)n1` [Compound 95]: the EC90 was ≤ 500 nM.

`CSCCNc1nc(C)c(C#Cc2ccc(-c3ccccn3)s2)c(N[C@@H]2C[C@H](CO)[C@@H](O)[C@H]2O)n1` [Compound 96]: the EC90 was ≤ 500 nM. For `OC[C@H]1C[C@@H](Nc2nc(NCC(F)(F)F)nc(Cl)c2C#Cc2ccc(-c3ccccn3)s2)[C@H](O)[C@@H]1O` [Compound 97] the value was ≤ 500 nM; for `Cc1nc(NCCCO)nc(N[C@@H]2C[C@H](CO)[C@H]3OC(C)(C)O[C@H]32)c1C#Cc1cccs1` [Compound 100], 500 to 5000 nM. `Cc1nc(-c2ccccc2)c(C#Cc2c(Cl)nc(NCC(F)(F)F)nc2N[C@@H]2C[C@H](CO)[C@@H](O)[C@H]2O)s1` [Compound 101]: the EC90 lay in the range of 500 to 5000 nM. In the case of `Cc1nc(NCc2ccccn2)nc(N[C@@H]2C[C@H](CO)[C@@H](O)[C@H]2O)c1C#Cc1ccsc1` [Compound 102] it was ≤ 500 nM; in that of `CCOCCNc1nc(C)c(C#Cc2ccsc2)c(N[C@@H]2C[C@H](CO)[C@@H](O)[C@H]2O)n1` [Compound 103], ≤ 500 nM; in that of `Cc1nc(NCC2CC2)nc(N[C@@H]2C[C@H](CO)[C@@H](O)[C@H]2O)c1C#Cc1ccc(-c2ccccn2)s1` [Compound 104], 500 to 5000 nM. `COCCNc1nc(C)c(C#Cc2ccc(-c3ccccn3)s2)c(N[C@@H]2C[C@H](CO)[C@@H](O)[C@H]2O)n1` [Compound 105]: the EC90 was in the range of 500 to 5000 nM.

Values taken from patent publication US8541434B2, “Ethynyl-substituted pyridine and pyrimidine derivatives and their use in treating viral infections” (Merck Sharp & Dohme Corp., priority 2008, dated 2013).
